Reference: ChEMBL document CHEMBL3507680, “University of Dundee, Gates Library screen for HepG2 cell viability”

Test: Human HepG2 cell viability assay in 384 well format
Format: toxicity, cell-based
Parameters: dose 125 nL, time 70.5 hour; concentration not given beside the values
Conditions: HepG2 cells, read-out: Inhibition

Structure (SMILES) | cytotoxicity at 70.5 h
N#Cc1cccc(N2CCCC3(CN(C(=O)c4ccc[nH]4)CCO3)C2)c1 (centres undefined) | -5.89%
CCc1cnc(N2C[C@H]3CN(Cc4ccc(OC)cc4)C(=O)[C@H]3C2)nc1 | -2.79%
N#Cc1cccc(N2CCOCC3(CCCN(C(=O)NC4CC4)C3)C2)c1 (centres undefined) | -6.43%
COCCN1C(=O)C2(CCC(C(=O)Nc3ccccn3)CC2)N=C1C (centres undefined) | -11.2%
Cn1ccnc1C(=O)NCc1cc(=O)n2c(n1)CN(CC1CC1)CCC2 | -4.68%
CN1C(=O)CC2(CCN(Cc3cnn(C)c3)CC2)c2ccccc21 | -2.77%
CNC(=O)[C@@H]1COC[C@H]2CN(C(=O)c3ccc(OC)cc3)C[C@H]21 | -2.56%
Cn1cc(CN2C[C@@H](N3CCCC3=O)[C@H]3OCCC[C@H]32)cn1 | -3.55%
CNC(=O)[C@@H]1COC[C@H]2CN(C(=O)c3cccc(OC)c3)C[C@H]21 | 9.55%
Cn1cc(CN2CCC3(CC2)CC(=O)Nc2ccccc23)cn1 | -1.78%
c1cnc(N2CC[C@@H]3[C@@H]2CCN3Cc2cccs2)nc1 | -4.98%
Cc1cccc(CN2C[C@@H]3OCCN(C)[C@@H]3C2)n1 | -11.9%
CCS(=O)(=O)N1CCc2ncnc(OC)c2CC1 | -5.9%
COc1ncccc1CN1C[C@@H]2COC[C@]2(CNC(=O)c2ccno2)C1 | -15.5%
c1cncc(N2CCOC3(CCCN(c4nncs4)C3)C2)c1 (centres undefined) | -7.3%
CS(=O)(=O)NC[C@]12COC[C@H]1CN(C(=O)CCc1ccccc1)C2 | -2.39%
CC(C)N(C)[C@@H]1CCN(C(=O)[C@H]2CCCO2)[C@H]1Cc1cnn(C)c1 | -4.8%
Cn1cc(C[C@H]2[C@@H](O)CCN2C(=O)C2CCC2)cn1 | -1.34%
O=C1CCCN1CC1CN(C(=O)N2CCOCC2)Cc2nccn2C1 (centres undefined) | -2.04%
COCC(=O)N1CCC2(CC1)CC(c1cnn(C)c1)C(=O)N2 (centres undefined) | -6.84%
Cc1ccccc1C(=O)N1CC(C(=O)NCC2CC2)C2(CCOCC2)C1 (centres undefined) | -1.13%
Cc1nnc(N2CCCC3(CN(c4cccc(F)c4)CCO3)C2)o1 (centres undefined) | 1.49%
Cc1cccc(CN2CCC3(CCCN(C(=O)CN(C)C)C3)C2=O)n1 (centres undefined) | 2.41%
CN(Cc1cn2c(n1)CN(C(N)=O)CC2)Cc1ccco1 | -1.71%
O=C(NCC1CC1)C1CN(C(=O)c2ccnnc2)CC12CCOCC2 (centres undefined) | -2.63%
Cc1nnc(N2C[C@H](C(=O)NCc3ccco3)[C@@H]3CCO[C@@H]3C2)s1 | -1.66%
CN1CC(=O)N(c2ccsc2)CC12CCN(Cc1nccn1C)C2 (centres undefined) | -0.505%

Structure (SMILES) | cytotoxicity at 70.5 h
Cc1nc([C@H]2C[C@@H]3CCN(C(=O)c4ccnnc4)C[C@H]3O2)sc1C | -0.727%
COCCN1C(=O)CCC12CCCN(c1ncc(F)cn1)CC2 (centres undefined) | 1.58%
CCC1=N[C@@]2(CC[C@@H]3CN(S(=O)(=O)CC)C[C@@H]32)C(=O)N1CCOC | -2.77%
COCC1CN(C(=O)c2cccn2C)Cc2cnn(C)c21 (centres undefined) | -0.85%
Cn1cnc2c1C(COCC1CC1)CN(C(=O)c1cccs1)C2 (centres undefined) | 8.88%
Cn1cnc2c1C(COCC1CC1)CN(C(=O)c1ccsc1)C2 (centres undefined) | 6.4%
O=C(Cc1ccccn1)N1CCn2cc(Cn3cncn3)nc2C1 | 0.952%
Cc1ccc(CN2C[C@@H](c3ccccc3)[C@@]3(CCNC3=O)C2)o1 | 2.86%
CCS(=O)(=O)N1CCc2cc(C(=O)NC)c(N(C)C)nc2CC1 | 5.95%
O=C(NCCC(O)c1ccccc1)c1ccco1 (centres undefined) | -8.79%
O=C(CCn1nc(C(F)(F)F)c(Br)c1C1CC1)NN1CCOCC1 | -4.82%
Cc1nn(C)c(C)c1C(=O)NN1CCOCC1 | -6.78%
CS(=O)(=O)Nc1ccn(Cc2ccc(Cl)cc2)n1 | 10.5%
CCn1ccc(NC(=O)c2cc(C)on2)n1 | -8.5%
CC1CCC(NC(=O)c2nn(C)cc2I)CC1 (centres undefined) | -7.74%
Cc1c(Cl)c(C(=O)NC(C)CN2CCOCC2)nn1C (centres undefined) | 6.43%
Cc1nn(C)c(C)c1CN(C)C(=O)c1cc(C(F)(F)F)n(C)n1 | -5.06%
Cc1c(CN(C)C(=O)c2ccnn2C)cnn1C | 6.18%
COC(=O)C1=C(C)N=C2SCC(=O)N2C1c1cn(C)nc1C (centres undefined) | -9.65%
CCn1ccc(CNC(=O)c2cc(OC)cc(OC)c2)n1 | -10.5%
CCn1cc(NC(=O)C(C)n2ncc(Cl)c2C)c(C(=O)NC)n1 (centres undefined) | -3.34%
CCCNC(=O)c1nn(CC)cc1NC(=O)C(C)n1ncc(Cl)c1C (centres undefined) | -5.37%
CCn1cc(NC(=O)C(C)n2ncc(Cl)c2C)c(C(=O)OC)n1 (centres undefined) | -3.71%
Cc1ccnn1CCCNC(=O)C1CCN(S(C)(=O)=O)CC1 | -1.25%
COc1cccc(Cn2cc(N3C(=O)CCC3=O)cn2)c1 | 3.42%
CCc1nnc(SCc2nonc2C)n1C1CC1 | -10.7%
CCn1cc(-c2nn3c(C(F)(F)F)nnc3s2)c(C)n1 | -3.8%
